Values of other authors, collected in US20180255771A1, “CONTROLLED GAS PHASE RELEASE OF NON AQUEOUS PHASE LIQUID ESSENTIAL OIL COMPOUNDS FOR AROMATHERAPY, FRAGRANCE AND INSECTICIDAL ACTIVITY” (priority 2015, published 2018).

Columns and labels:
Ixodes ricinus = settings: for repellency to Ixodes ricinus: 1 ug dose; for repellency to Ixodes ricinus compared with DEET: 10 ug dose
[1] = at 20° C.
[2] = USEPA conclusion

SMILES	repellency to Ixodes ricinus (Ixodes ricinus)	repellency to Ixodes ricinus compared with DEET (Ixodes ricinus)	also measured
CCc1ccc(O)c(O)c1 [4-Ethyl-1,2-benzenediol]	statistically significantly more repellent	as repellent as DEET	
C=CCc1cc(OC)c(O)c(OC)c1 [4-Allyl-2,6-dimethoxyphenol]		as repellent as DEET	
C=CCc1ccc(O)c(OC)c1 [eugenol]			repelling ticks (Ixodes ricinus) compared with DEET (Ixodes ricinus; 100 ug dose, DEET at a 100 ug dose): as effective at repelling ticks
Cc1ccc(O)c(O)c1 [4-Methyl-1,2-benzenediol]		as repellent as DEET	
CCN(CC)C(=O)c1cccc(C)c1 [DEET, N,N-diethyl-meta-toluamide]	not reported to be effective		vapor pressure [1]: 0.0056 mm Hg; risks to humans or the environment [2]: will generally not cause unreasonable risks
